Test system: IL-5 production
Assay: In vitro inhibition of IL-5 production in human blood (phytohemagglutinin-stimulated whole blood, ELISA);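 note: values marked with an asterisk were tested at 10 µM and unmarked values at 1 µM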
Format: cell-based
Details: test dose 1×10^−6 M, 48 hours
Protocol: In Vitro Inhibition of IL-5 Production in Human Blood
Human Whole Blood Stimulation
Peripheral blood from healthy male donors was drawn into heparinized syringes (12.5 U heparin/ml). Blood samples were three-fold diluted in RMPI 1640 medium (Life Technologies, Belgium) supplemented with 2 mM L-glutamine, 100 U/ml penicillin and 100 μg/ml streptomycin, and 300 μl fractions were distributed in 24-well multidisc plates. Blood samples were preincubated (60 minutes at 37° C.) in a humidified 6% CO2-atmosphere with 100 μl of drug solvent (final concentration 0.02% dimethylsulfoxide in RPMI 1640) or with 100 μl of an appropriate dose of test compound before being stimulated by the addition of 100 μl of phytohemagglutinin HA17 (Murex, UK) at a final concentration of 2 μg/ml. After 48 hours, cell-free supernatant fluids were collected by centrifugation and stored at −70° C. until tested for the presence of IL-5.
IL-5 measurements were conducted as described in Van Wauwe et al. (1996, Inflamm Res, 45, 357-363) on page 358 using ELISA.
Table 9 lists the percentage inhibition of IL-5 production (column “% inh”) at a test dose of 1×10^−6 M, or in case the percentage inhibition is marked with an “*” 1×10^−5 M, the compounds of the present invention.

First: CCOCCc1nnc(C(c2ccc(Cl)cc2)c2c(Cl)cc(-n3ncc(=O)[nH]c3=O)cc2Cl)o1 (racemic) [Compound 181]
Second: Cc1nnc(C(c2ccc(Cl)cc2)c2c(Cl)cc(-n3ncc(=O)[nH]c3=O)cc2Cl)o1 (racemic) [Compound 162]
The “% inh. (percentage inhibition of IL-5 production)” value of the first is lower: 55% for the first, 63% for the second.

First: O=c1cnn(-c2cc(Cl)c(C(c3ccc(Cl)cc3)c3nnc(-c4ccc(Cl)cc4)o3)c(Cl)c2)c(=O)[nH]1 (racemic) [Compound 167]
Second: O=c1cnn(-c2cc(Cl)c(C(c3ccc(Cl)cc3)c3nnc(-c4cccs4)o3)c(Cl)c2)c(=O)[nH]1 (racemic) [Compound 166]
The “% inh. (percentage inhibition of IL-5 production)” value of the first is lower: 82% for the first, 87% for the second.

Going from `CN1CCCC(c2nnc(C(c3ccc(Cl)cc3)c3c(Cl)cc(-n4ncc(=O)[nH]c4=O)cc3Cl)o2)C1` (mixture of isomers) [Compound 196] to `O=c1cnn(-c2cc(Cl)c(C(c3ccc(Cl)cc3)c3nnc(-c4ccccn4)o3)c(Cl)c2)c(=O)[nH]1` (racemic) [Compound 169], the “% inh. (percentage inhibition of IL-5 production)” value rises from 35% to 81%.

First: O=c1cnn(-c2ccc(C(c3ccc(Cl)cc3)c3noc(-c4ccccc4)n3)c(Cl)c2)c(=O)[nH]1 (racemic) [Comp 107]
Second: Cc1nnc(C(c2ccc(Cl)cc2)c2ccc(-n3ncc(=O)[nH]c3=O)cc2Cl)o1 (racemic) [Comp 102]
The “% inh. (percentage inhibition of IL-5 production)” value of the first is higher: 81% for the first, 14% for the second.

Compared with `CC(C)c1sc(C(c2ccc(Cl)cc2)c2c(Cl)cc(-n3ncc(=O)[nH]c3=O)cc2Cl)nc1-c1ccccc1` (racemic) [Compound 241, (±)-2-[3,5-dichloro-4-[(4-chlorophenyl)[5-(1-methylethyl)-4-phenyl-2-thiazolyl]methyl]-phenyl-1,2,4-triazin-3,5(2H,4H)-dione], `CN(C)CCN(C)C(=O)Cc1sc(C(c2ccc(Cl)cc2)c2c(Cl)cc(-n3ncc(=O)[nH]c3=O)cc2Cl)nc1-c1ccccc1` (racemic) [Comp 335] is lower in “% inh. (percentage inhibition of IL-5 production)” value: 95% for the first, 52% for the second.

Going from `O=c1cnn(-c2ccc(C(O)(c3ccc(Cl)cc3)c3nc(-c4ccccc4)cs3)c(Cl)c2)c(=O)[nH]1` (racemic) [Comp 34] to `CN(C)CCNC(c1ccc(Cl)cc1)(c1nc(-c2ccccc2)c(Cl)s1)c1ccc(-n2ncc(=O)[nH]c2=O)cc1Cl` (racemic) [Comp 266], the “% inh. (percentage inhibition of IL-5 production)” value falls from 58% to 46%.

Compared with `CN1CCC(N(C)Cc2sc(C(c3ccc(Cl)cc3)c3c(Cl)cc(-n4ncc(=O)[nH]c4=O)cc3Cl)nc2-c2ccccc2)CC1` (racemic) [Comp 322], `CCOC(=O)c1sc(C(c2ccc(Cl)cc2)c2c(Cl)cc(-n3ncc(=O)[nH]c3=O)cc2Cl)nc1-c1ccccc1F` (racemic) [Comp 285] is lower in “% inh. (percentage inhibition of IL-5 production)” value: 96% for the first, 89% for the second.

First: O=c1cnn(-c2cc(Cl)c(C(Sc3ncccn3)c3ccc(Cl)cc3)c(Cl)c2)c(=O)[nH]1 (single isomer, unassigned) [Compound 347]
Second: Nc1ccnc(SC(c2ccc(Cl)cc2)c2c(Cl)cc(-n3ncc(=O)[nH]c3=O)cc2Cl)n1 (racemic) [Compound 348]
The “% inh. (percentage inhibition of IL-5 production)” value of the first is lower: 8% for the first, 83% for the second.

Compared with `O=c1cnn(-c2cc(Cl)c(C(c3ccc(Cl)c(C(F)(F)F)c3)c3nc(-c4ccccc4)cs3)c(Cl)c2)c(=O)[nH]1` (racemic) [Comp 226], `O=c1cnn(-c2cc(Cl)c(C(c3ccc(Cl)cc3)c3nc(-c4cccc(Br)c4)cs3)c(Cl)c2)c(=O)[nH]1` (racemic) [Comp 250] is lower in “% inh. (percentage inhibition of IL-5 production)” value: 93% for the first, 84% for the second.

Compared with `O=c1cnn(-c2cc(Cl)c(C(Sc3nccc(N4CCOCC4)n3)c3ccc(Cl)cc3)c(Cl)c2)c(=O)[nH]1` (racemic) [Compound 349], `O=c1cnn(-c2cc(Cl)c(C(Sc3ccncn3)c3ccc(Cl)cc3)c(Cl)c2)c(=O)[nH]1` (racemic) [Compound 409] is higher in “% inh. (percentage inhibition of IL-5 production)” value: 87% for the first, 88% for the second.

Going from `CCOC(=O)N1CCC(NC(=S)Nc2cccc(-c3nnc(C(c4ccc(Cl)cc4)c4c(Cl)cc(-n5ncc(=O)[nH]c5=O)cc4Cl)o3)c2)CC1` (racemic) [Compound 220] to `CCOC(=O)c1sc(C(c2ccc(Cl)cc2)c2c(Cl)cc(-n3ncc(=O)[nH]c3=O)cc2Cl)nc1-c1ccccc1Cl` (racemic) [Comp 274], the “% inh. (percentage inhibition of IL-5 production)” value rises from 25% to 89%.

Going from `CC(=O)Nc1ccc(SC(c2ccc(Cl)c(C(F)(F)F)c2)c2c(Cl)cc(-n3ncc(=O)[nH]c3=O)cc2Cl)cc1` (racemic) [Compound 398] to `O=c1cnn(-c2cc(Cl)c(C(Sc3nc4cc(Cl)ccc4s3)c3ccc(Cl)c(C(F)(F)F)c3)c(Cl)c2)c(=O)[nH]1` (racemic) [Compound 402], the “% inh. (percentage inhibition of IL-5 production)” value falls from 96% to 90%.

Going from `O=c1cnn(-c2cc(Cl)c(C(Sc3nc4ccc([N+](=O)[O-])cc4s3)c3ccc(Cl)c(C(F)(F)F)c3)c(Cl)c2)c(=O)[nH]1` (stereo not shown) [Compound 388] to `O=c1cnn(-c2cc(Cl)c(C(Sc3nc(-c4ccco4)cs3)c3ccc(Cl)c(C(F)(F)F)c3)c(Cl)c2)c(=O)[nH]1` (racemic) [Compound 399], the “% inh. (percentage inhibition of IL-5 production)” value rises from 90% to 93%.

Compared with `Cn1ccnc1C(c1ccc(Cl)cc1)c1c(Cl)cc(-n2ncc(=O)[nH]c2=O)cc1Cl` (racemic) [Comp 109], `O=c1cnn(-c2cc(Cl)c(C(Sc3nccc(N(CCO)CCO)n3)c3ccc(Cl)cc3)c(Cl)c2)c(=O)[nH]1` (racemic) [Compound 358] is higher in “% inh. (percentage inhibition of IL-5 production)” value: 35% for the first, 63% for the second.

Compared with `Cl.O=c1cnn(-c2ccc(C(NCCc3ccco3)c3ccc(Cl)cc3)c(Cl)c2)c(=O)[nH]1` (racemic) [Compound 43], `O=c1cnn(-c2ccc(C(c3ccc(Cl)cc3)c3sc(-c4ccccc4Cl)nc3-c3ccccc3Cl)c(Cl)c2)c(=O)[nH]1` (racemic) [Compound 151] is lower in “% inh. (percentage inhibition of IL-5 production)” value: 37% for the first, 17% for the second.

Same assay, conditions: test dose 1×10^−6 M, 48 hours, read-out: % inh. (percentage inhibition of IL-5 production)

Compared with `O=c1cnn(-c2ccc(C(Nc3ncccn3)c3ccc(Cl)cc3)c(Cl)c2)c(=O)[nH]1` (racemic) [Compound 49, (±)-2-[3-chloro-4-[(4-chlorophenyl)(2-pyrimidinylamino)methyl]phenyl]-1,2,4-triazine-3,5(2H,4H)-dione], `NC(c1ccc(Cl)cc1)(c1nccs1)c1ccc(-n2ncc(=O)[nH]c2=O)cc1Cl` (racemic) [Compound 35, (±)-2-[3-chloro-4-[amino-(4-chlorophenyl)-2-thiazolylmethyl]phenyl]-1,2,4-triazine-3,5(2H,4H)-dione] is lower in inhibition at 1 µM: 61% for the first, 56% for the second.

Going from `O=c1cnn(-c2cc(Cl)c(C(Sc3nccc(NCCO)n3)c3ccc(Cl)cc3)c(Cl)c2)c(=O)[nH]1` (racemic) [Compound 357, (±)-2-[3,5-dichloro-4-[(4-chlorophenyl)[[4-[(2-hydroxyethyl)amino]-2-pyrimidinyl]-thio]methyl]phenyl]-1,2,4-triazine-3,5(2H,4H)-dione] to `COC(c1ccc(Cl)cc1)(c1nccs1)c1ccc(-n2ncc(=O)[nH]c2=O)cc1Cl` (racemic) [Compound 37, (±)-2-[3-chloro-4-[(4-chlorophenyl)-methoxy(2-thiazolyl)methyl]phenyl]-1,2,4-triazine-3,5(2H,4H)-dione], the inhibition at 1 µM falls from 69% to 61%.
